Experimental data published in patent US20240140941A1, “DERIVATIVE OF 2,5-DIKETOPIPERAZINE COMPOUND, AND PREPARATION METHOD THEREFOR, PHARMACEUTICAL COMPOSITION THEREOF AND USE THEREOF” (DALIAN WZ PROBIOTICS AD HEALTH CO., LTD, priority 2020, published 2024).
Where a name gives a salt, the structure may show the parent alone. Read-outs that look alike come from different tables or passages of the source.

Legend:
β-tubulin [1] = assay: Immunofluorescence experiment, BxPC-3 cell line; type: cell-based, human; conditions: for β-tubulin fluorescence value: BxPC-3 cell line, control 29873 ± 4013; for number of tubulin distributed radially: BxPC-3 cells, in words
Experimental: (§1) 1. Cell membrane rupture: After the cover slip was shaken to slight dryness, a circle was drawn using a histochemical pen at the position where the cells were evenly distributed in the middle of the cover slip (to prevent the antibody from flowing away). 50 to 100 μL of membrane rupture working solution was added, and incubated at room temperature for 20 min, washed 3 times with PBS, 5 min each time.
(§2) 2. Serum blocking: BSA was added dropwise in the circle to evenly cover the tissue and block at room temperature for 30 min. (The primary antibody was from goat and blocked with 10% normal rabbit serum, and the primary antibody from other sources was blocked with 3% BSA)
(§3) 3. Adding the primary antibody: The blocking solution was shaken off gently, and the primary antibody was added dropwise in the cell well plate (prepared in a certain proportion using PBS), and the cell culture plate was placed flat in a humid box and incubated overnight at 4° C.
(§4) 4. Adding secondary antibody: PBS was added to the cell culture plate, placed on a decolorizing shaker, shaken and washed for 3 times, 5 min each time. After shaking to slight dryness, a secondary antibody corresponding to the species of the primary antibody in the histochemical kit was added dropwise in the circle to cover the tissue, and incubated at room temperature for 50 min.
(§5) 5. DAPI restaining nucleus: The cover slip was placed in PBS (pH 7.4), shaken and washed 3 times on the decolorizing shaker, 5 min each time. After the cover slip was shaken to slight dryness, DAPI staining solution was added dropwise in the circle, and incubated at room temperature for 10 min in the dark.
(§6) 6. Sealing the cover slip: The cover slip was placed in PBS (pH 7.4), shaken and washed 3 times on the decolorizing shaker, 5 min each time. After the cover slip was shaken to slight dryness, the cover slip was sealed with antifade mounting medium.
(§7) 7. Microscopic examination and photographing: The cover slip was observed under a fluorescent microscope and images were collected.

[2] = Compound solubility experiment, Method 2: about 2 mg salt in 0.2 mL ultrapure water, dissolution observed; type: physicochemical; conditions: 37 °C, thermodynamic from solid, salts, 37±1° C., shaken 24 hours
Experimental: Method 2: A 0.5 mL brown EP tube was taken, about 2 mg of hydrochloride of derivatives of 2,5-diketopiperazine compounds was weighed respectively, and 0.2 mL of ultrapure water was added thereto. The mixture was vortexed, put into an incubation shaker, maintained at a temperature of (37±1° C.), shaken at 100 r/min for 24 hours, so as to achieve full dissolution equilibrium. The dissolution of the mixture was observed.

HT-29 = assay: Inhibition test on cell proliferation (MTT), HT-29; type: cell-based, human; conditions: 72 hours of drug treatment
Outline: (§8)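 Cells plated at 2000-6000 per well, allowed to adhere for 24 h, then exposed to serially diluted compound for 72 h at 37 °C, 5% CO2. Viability read by MTT reduction, with formazan dissolved in DMSO and absorbance taken at 490 nm. Inhibition rate calculated relative to untreated and zero-setting wells.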

BxPC-3 cell line = assay: Cell apoptosis experiment (Annexin V/PI double staining, flow cytometer), BxPC-3; type: cell-based, human; conditions: for number of apoptosis: BxPC-3, in words; for Proportion of late apoptotic cells / Proportion of early apoptotic cells: BxPC-3; for Proportion of late apoptotic cells: blank control 0.94%; for Proportion of early apoptotic cells: blank control 1.11%
Experimental: (§9) 1. Cell collection: The cell culture dish was taken out, the culture medium was washed with PBS, digested with EDTA-free trypsin, collected into a centrifuge tube. The number of cells per sample was about 1×10^6/mL, and the centrifuge tube was centrifuged at 800 r/min for 3 min, and the culture medium was discarded.
(§10) 2. The residue was washed twice with frozen PBS, centrifuged at 800 r/min for 3 min each time, and the supernatant was discarded.
(§11) 3. Blank group, single-stained group and double-stained group were set, and 100 μL of binding buffer was added thereto. 5 μL of FITC-annexin V and 5 μL of PI were chosen according to different groups, mixed gently, incubated at room temperature in the dark for 15 min, then 400 μL of binding buffer was added thereto, and the cells were gently mixed.
(§12) 4. After filtering the cell suspension with a 300-mesh nylon membrane, the cell suspension was detected by a flow cytometer.

BxPC-3 = assay: Inhibition test on cell proliferation (MTT), BxPC-3; type: cell-based, human; conditions: 72 hours of drug treatment, MTT, read-out: IC50 (nM) BxPC-3
Outline: as §8

NCI-H460 = assay: Inhibition test on cell proliferation (MTT), NCI-H460; type: cell-based, human; conditions: 72 hours of drug treatment, MTT, read-out: IC50 (nM) NCI-H460
Outline: as §8

NCI-H460 cell line = assay: Cell apoptosis experiment (Annexin V/PI double staining, flow cytometer), NCI-H460; type: cell-based, human; conditions: for number of apoptosis: NCI-H460, in words; for Proportion of late apoptotic cells / Proportion of early apoptotic cells: NCI-H460; for Proportion of late apoptotic cells: blank control 0.54%; for Proportion of early apoptotic cells: blank control 1.84%
Experimental: as §9, §10, §11, §12

β-tubulin [3] = assay: Immunofluorescence experiment, NCI-H460 cell line; type: cell-based, human; conditions: for β-tubulin fluorescence value: NCI-H460 cell line, control 20330 ± 1233; for number of tubulin distributed radially: NCI-H460 cells, in words
Experimental: as §1, §2, §3, §4, §5, §6, §7

HCC-LM3 = assay: Inhibition test on cell proliferation (MTT), HCC-LM3; type: cell-based, human; conditions: 72 hours of drug treatment, MTT, read-out: IC50 (nM) HCC-LM3
Outline: as §8

[4] = Compound solubility experiment, Method 1: equilibrium solubility in pure water, LC-MS; type: physicochemical; conditions: ultrapure water, 37±1° C., shaken 24 hours
Experimental: Method 1: A 1.5 mL brown EP tube was taken, about 1 mg of compound was weighed respectively, and 1 mL of ultrapure water was added thereto. The mixture was vortexed, and sonicated until the compound was no longer dissolved (the solution was turbid or had suspended particles). The mixture was put into an incubation shaker, maintained at a temperature of (37±1° C.), shaken at 100 r/min for 24 hours, so as to achieve full dissolution equilibrium. After 24 hours, the supernatant was quickly filtered through a 0.45 μm microporous membrane, and the initial filtrate was discarded. 200 μL of the renewed filtrate was taken and diluted with 200 μL of methanol. The assay was repeated at least three times. According to the chromatographic conditions, the sample was injected by LC-MS, and the peak area was measured and the equilibrium solubility of each 2,5-diketopiperazine derivative in pure water was calculated.

| SMILES | solubility at 24 h [2] | IC50 (HT-29; hydrochloride) | IC50 (BxPC-3; hydrochloride) | IC50 (NCI-H460; hydrochloride) | IC50 (HCC-LM3; hydrochloride) | further results |
| --- | --- | --- | --- | --- | --- | --- |
| CC(C)c1c(/C=c2\[nH]c(=O)/c(=C/c3cccc(C(=O)c4ccc(F)cc4)c3)[nH]c2=O)ncn1CCCN1CCOCC1 [PLN-2-1-1, (3Z,6Z)-3-(3-(p-Fluorobenzoyl)phenyl)methylene-6-((5-isopropyl-1-(3-morpholinyl)propylimidazol-4-yl)methylene)piperazine-2,5-dione, hydrochloride] | > 10000 µg/mL | 1.56 ± 0.47 nM | 1.77 ± 0.03 nM | 2.28 ± 1.24 nM | 2.04 ± 0.57 nM | β-tubulin fluorescence value (β-tubulin [1]): 9533; number of tubulin distributed radially (β-tubulin [1]): significantly reduced; number of apoptosis (BxPC-3 cell line): significantly increased; Proportion of late apoptotic cells (BxPC-3 cell line): 6.79%; Proportion of early apoptotic cells (BxPC-3 cell line): 3.82%; number of apoptosis (NCI-H460 cell line): significantly increased; Proportion of late apoptotic cells (NCI-H460 cell line): 9.70%; Proportion of early apoptotic cells (NCI-H460 cell line): 3.55%; β-tubulin fluorescence value (β-tubulin [3]): 5344; number of tubulin distributed radially (β-tubulin [3]): significantly reduced |
| O=C(c1ccc(F)cc1)c1cccc(/C=c2\[nH]c(=O)/c(=C/c3ncn(CCCN4CCOCC4)c3C3CC3)[nH]c2=O)c1 [PLN-2-3-1, (3Z,6Z)-3-(3-(p-Fluorobenzoyl)phenyl)methylene-6-((5-cyclopropyl-1-(3-morpholinyl)propylimidazol-4-yl)methylene)piperazine-2,5-dione, hydrochloride] | > 10000 µg/mL | – | – | 5.6 ± 0.41 nM | – | β-tubulin fluorescence value (β-tubulin [1]): 9000; number of tubulin distributed radially (β-tubulin [1]): significantly reduced; number of apoptosis (BxPC-3 cell line): significantly increased; Proportion of late apoptotic cells (BxPC-3 cell line): 5.83%; Proportion of early apoptotic cells (BxPC-3 cell line): 2.75%; number of apoptosis (NCI-H460 cell line): significantly increased; Proportion of late apoptotic cells (NCI-H460 cell line): 6.76%; Proportion of early apoptotic cells (NCI-H460 cell line): 3.08%; β-tubulin fluorescence value (β-tubulin [3]): 7822; number of tubulin distributed radially (β-tubulin [3]): significantly reduced |
| O=c1[nH]/c(=C\c2ncn(CCCN3CCOCC3)c2C2CC2)c(=O)[nH]/c1=C\c1cccc(Oc2ccc(F)cc2)c1 [PLN-2-4-1, (3Z,6Z)-3-(3-(p-Fluorophenoxy)phenyl)methylene-6-((5-cyclopropyl-1-(3-morpholinyl)propylimidazol-4-yl)methylene)piperazine-2,5-dione, hydrochloride] | > 10000 µg/mL | – | – | 23.8 ± 1.36 nM | – | – |
| O=c1[nH]/c(=C\c2ncn(CCCN3CCOCC3)c2C2CC2)c(=O)[nH]/c1=C\c1cccc(F)c1 [PLN-2-10-1, (3Z,6Z)-3-(3-Fluorophenyl)methylene-6-((5-cyclopropyl-1-(3-morpholinyl)propylimidazol-4-yl)methylene)piperazine-2,5-dione, hydrochloride] | > 10000 µg/mL | 11.1 ± 1.39 nM | 12 ± 1.27 nM | 18.37 ± 0.13 nM | 12 ± 2.67 nM | – |
| CC(C)(C)c1[nH]cnc1/C=c1\[nH]c(=O)/c(=C/c2ccccc2)[nH]c1=O [Plinabulin, reference compound] | – | – | – | – | – | β-tubulin fluorescence value (β-tubulin [1]): 11000; IC50 (HT-29; Homo sapiens, HT-29, 72 h): 5.74 ± 0.73 nM; Proportion of late apoptotic cells (BxPC-3 cell line): 3.85%; Proportion of early apoptotic cells (BxPC-3 cell line): 1.66%; IC50 (BxPC-3; Homo sapiens, BXPC-3, 72 h): 5.41 ± 0.76 nM; IC50 (NCI-H460; Homo sapiens, NCI-H460, 72 h): 11.6 ± 0.96 nM; Proportion of late apoptotic cells (NCI-H460 cell line): 5.18%; Proportion of early apoptotic cells (NCI-H460 cell line): 1.90%; Solubility [4]: <0.25 µg/mL; β-tubulin fluorescence value (β-tubulin [3]): 8133; IC50 (HCC-LM3; Homo sapiens, HCCLM3, 72 h): 8.31 ± 0.23 nM |

Now from value to compound, other results behind:

| solubility at 24 h [2] | IC50 (HT-29; hydrochloride) | IC50 (BxPC-3; hydrochloride) | IC50 (NCI-H460; hydrochloride) | IC50 (HCC-LM3; hydrochloride) | SMILES | further results |
| --- | --- | --- | --- | --- | --- | --- |
| > 10000 µg/mL | 1.5 ± 0.58 nM | 1.21 ± 0.21 nM | 2.8 ± 1.15 nM | 1.76 ± 0.3 nM | CC(C)c1c(/C=c2\[nH]c(=O)/c(=C/c3cccc(Oc4ccc(F)cc4)c3)[nH]c2=O)ncn1CCCN1CCOCC1 [PLN-2-2-1, hydrochloride] | – |
| > 10000 µg/mL | 11.8 ± 5.52 nM | 9.73 ± 0.3 nM | 17.8 ± 0.55 nM | 12.4 ± 2.68 nM | CC(C)c1c(/C=c2\[nH]c(=O)/c(=C/c3ccccc3)[nH]c2=O)ncn1CCCN1CCOCC1 [PLN-2-5-1, (3Z,6Z)-3-Benzylidene-6-((5-isopropyl-1-(3-morpholinyl)propylimidazol-4-yl)methylene)piperazine-2,5-dione, hydrochloride] | – |
| > 10000 µg/mL | 5.61 ± 1.96 nM | 4.83 ± 0.2 nM | 6.93 ± 4.85 nM | 4 ± 1.5 nM | CC(C)c1c(/C=c2\[nH]c(=O)/c(=C/c3cc(F)ccc3F)[nH]c2=O)ncn1CCCN1CCOCC1 [PLN-2-7-1, (3Z,6Z)-3-(2,5-Difluorophenyl)methylene-6-((5-isopropyl-1-(3-morpholinyl)propylimidazol-4-yl)methylene)piperazine-2,5-dione, hydrochloride] | – |
| > 10000 µg/mL | 6.22 ± 1.61 nM | 5.76 ± 1 nM | 8.87 ± 0.05 nM | 6.99 ± 0.59 nM | CC(C)c1c(/C=c2\[nH]c(=O)/c(=C/c3cccc(F)c3)[nH]c2=O)ncn1CCCN1CCOCC1 [PLN-2-9-1, (3Z,6Z)-3-(3-Fluorophenyl)methylene-6-((5-isopropyl-1-(3-morpholinyl)propylimidazol-4-yl)methylene)piperazine-2,5-dione, hydrochloride] | – |
| > 10000 µg/mL | 3.79 ± 0.04 nM | 3.75 ± 0.06 nM | 6.87 ± 0.47 nM | 5.32 ± 1.38 nM | CC(C)c1c(/C=c2\[nH]c(=O)/c(=C/c3cc(F)cc(F)c3)[nH]c2=O)ncn1CCCN1CCOCC1 [PLN-2-62-1, (3Z,6Z)-3-(3,5-Difluorophenyl)methylene-6-((5-isopropyl-1-(3-morpholinyl)propylimidazol-4-yl)methylene)piperazine-2,5-dione, hydrochloride] | – |
| > 10000 µg/mL | – | 50.1 ± 7.79 nM | 94.7 ± 9.48 nM | 66.6 ± 4.98 nM | CC(C)c1c(/C=c2\[nH]c(=O)/c(=C/c3ccc(F)c(F)c3)[nH]c2=O)ncn1CCCN1CCOCC1 [PLN-2-63-1, hydrochloride] | – |
